Reference: PMC11092066, “Novel analogues of a nonnucleoside SARS-CoV-2 RdRp inhibitor as potential antivirotics” (Beilstein Journal of Organic Chemistry, 2024)

Molecular target: SARS-CoV-2 RdRp (nsp12, nsp7, nsp8 polymerase complex) (Severe acute respiratory syndrome coronavirus 2, UniProt P0DTD1)
Assay: biochemical
Format: biochemical
Conditions: for BEI (binding efficiency index): calculated as pIC50 [mol/L]/MW [kDa] from SARS-CoV-2 RdRp IC50; for IC50: recombinant RdRp: 1 μM nsp12, 3 μM nsp7, 3 μM nsp8, 0.5 μM template/primer RNA, 10 μM NTPs, 1 h at 30 °C, GraphPad fit

| SMILES | BEI (binding efficiency index) | IC50 | inhibitory activity against SARS-CoV-2 RdRp (in words) (primer extension polymerase assay) |
| --- | --- | --- | --- |
| Cn1cc(C(=O)N[C@@H](Cc2ccc(O)cc2)C(=O)O)cc(-c2cccnc2)c1=O [3b] | 9.4 | 204 µM |  |
| Cc1nn2c(=O)c(-c3ccccc3)cc(C(=O)N[C@@H](Cc3ccc(O)cc3)C(=O)O)c2s1 [4b] | 8.8 | 113 µM |  |
| O=C(N[C@@H](Cc1ccc(O)cc1)C(=O)O)c1cc(-c2ccccc2)c(=O)n2c1sc1ccc(OC3CCCCC3)cc12 [compound 1, HeE1-2Tyr, reference compound] | 7.8 |  |  |
| O=C(N[C@@H](Cc1ccc(O)cc1)C(=O)O)c1cc(-c2ccccc2)c(=O)n2ccsc12 [4a] | 9.3 | 88.1 µM |  |
| Cn1cc(C(=O)N[C@@H](Cc2ccc(O)cc2)C(=O)O)cc(-c2ccsc2)c1=O [3c] | 10.2 | 88.1 µM |  |
| O=C(N[C@@H](Cc1ccc(O)cc1)C(=O)O)c1cc(-c2ccccc2)c(=O)n(-c2cc(OC3CCCCC3)ccc2O)c1O [compound 16] | 6.7 | 114 µM |  |
| Cn1cc(C(=O)N[C@@H](Cc2ccc(O)cc2)C(=O)O)cc(-c2ccccc2)c1=O [3a] | 9.9 |  |  |
| O=C(N[C@@H](Cc1ccc(O)cc1)C(=O)O)c1cc(-c2ccccc2)c(=O)n2c1oc1ccc(OC3CCCCC3)cc12 [compound 2] |  |  | devoid of any activity |
